Results on 4 molecules are retold here after patent US20120100157A1, “Biomarker and Method for Predicting Sensitivity to MET Inhibitors” (Van Andel Research Institute, priority 2010, published 2012).

Experiment [1] concerns V13. Description: In vivo efficacy study, V13 GBM patient-derived xenograft. Details: species or system mice. To be noted: for tumor response: V13 in SCIDhgf mice, Erlotinib at 75 mg/kg. The procedure: The V13 GBM xenograft tumor line was generated from the primary tumor of a GBM patient upon surgical removal. The fresh tumor specimen was split into two pieces, one to be divided and implanted into 5 nude mice to propagate tumor growth and another piece to be directly digested with 0.05% trypin into single cells and grown in Neuro-basal medium with 10% FBS supplemented with EGF (20 ng/ml), bFGF (20 ng/ml) and 1% penicillin and streptomycin at 37° C. The tumors growing from nude mice were analyzed using FISH to compare them with the original tumor and were further transplanted into the host nude mice to maintain tumor growth in vivo. All studies involving human subjects and human tissues were approved by IRB committee of Van Andel Research Institute.
(§1) All animal studies were approved by the IACUC of the Van Andel Research Institute. Each GBM cell line (5×10^5 cells in 100 μl PBS) was inoculated into both SCID and SCIDhgf mice subcutaneously. For V13 tumor line, tumors were transplanted into SCIDhgf mice at the flank to initiate tumor growth. Tumor size was measured with a caliper twice a week. When average tumor size reached 100 mm^3, mice were grouped (n=10) for treatment as indicated. Dosing with SGX523 and/or erlotinib was delivered once daily by oral gavage for 3 weeks. Vehicles used were 0.5% MC 400 with 0.05% Tween 80 (SGX523) and 0.5% (w/v) methyl cellulose (erlotinib). Tumor size was measured by a caliper twice a week. Body weight was measured once a week. All mice were sacrificed 24 h after last dose. To determine the effectiveness of treatment, the average tumor size of each group from the last measurement was analyzed with Student's t test (α=0.05).
In general terms: Xenograft models place foreign cells or tissue in a host animal.

Experiment [2] has as its system SF295 SQ1. Description: Serum HGF ELISA, SF295 SQ1 tumor-bearing mice. It is filed as in vivo. The settings on record: end of efficacy study, mean ± SD. The procedure:
(§2) At the end of the efficacy study, mouse serum was collected from each group and kept at −80° C. until use. For HGF expression level, 50 μl of serum was used for an ELISA test (R&D) according to the kit instructions. At least five samples were tested. Data represent mean±SD. Student's t test was used for statistical analysis.
(In general: An ELISA detects its analyte on a solid surface through an enzyme-linked reagent.)

The subject of experiment [3] is U87M2. Description: In vivo SGX523 and erlotinib therapeutic efficacy study, U87M2 xenograft. On the set-up: species or system mice. The procedure: as §1
For experiment [4], the system named is DBM2. Description: In vivo SGX523 and erlotinib therapeutic efficacy study, DBM2 xenograft. On the set-up: species or system mice. The procedure:
as §1

Experiment [5] has as its system U251M2. Description: In vivo SGX523 and erlotinib therapeutic efficacy study, U251M2 xenograft. On the set-up: species or system mice. To be noted: for tumor sensitivity to single agent: either drug alone. The procedure:
as §1

Experiment [6] deals with U118. Description: Serum HGF ELISA, U118 tumor-bearing mice. In kind it is in vivo. The settings on record: end of efficacy study, mean ± SD. On the procedure: as §2
For experiment [7], the system named is X01-GB. Description: In vivo efficacy study, X01-GB GBM stem cell tumors. The settings on record: for tumor response: X01-GB tumors, erlotinib at 75 mg/kg. On the set-up: species or system mice. On the procedure:
as §1

Experiment [8] concerns U87M2. Description: Serum HGF ELISA, U87M2 tumor-bearing mice. It is filed as in vivo. The settings on record: end of efficacy study, mean ± SD. The procedure:
as §2

Experiment [9] has as its system U251M2, T98G, and DBM2 cells. Description: HGF- and EGF-induced uPA activity in GBM cells without autocrine HGF. It is filed as cell-based, human. To be noted: for cross inhibition between MET and EGFR pathways (uPA activity): early time point in vitro. On the procedure:
(§3) Cells were grown overnight in DMEM/10% FBS. Drugs were dissolved in DMSO and serially diluted from stock concentrations into DMEM/10% FBS medium and added to the appropriate wells. Immediately after drug or reagent addition, HGF/SF (60 ng/ml) was added to all wells (with the exception of wells used as controls to calculate basal growth and uPA-plasmin activity levels). Twenty-four hours after drug and HGF/SF addition, plates were processed for the determination of plasmin activity as described previously (22). Wells were washed twice with DMEM (without phenol red; Life Technologies, Inc.), and 200 μl of reaction buffer [50% (v/v) 0.05 units/ml plasminogen in DMEM (without phenol red), 40% (v/v) 50 mM Tris buffer (pH 8.2), and 10% (v/v) 3 mM Chromozyme PL (Boehringer Mannheim) in 100 mM glycine solution] was added to each well. The plates were then incubated at 37° C., 5% CO2, for 4 h, at which time the absorbance was read on an automated spectrophotometric plate reader at the single wavelength of 405 nm.

Experiment [10] relates to recurrent GBM. The settings on record: clinical trials against recurrent GBM; cited from earlier work.
Experiment [11] deals with SF295SQ1. Description: In vivo SGX523 and erlotinib therapeutic efficacy study, SF295SQ1 xenograft. Details: species or system mice. To be noted: SF295SQ1 subcutaneous; P<0.05 at all three doses. The procedure: as §1
Experiment [12] concerns U118. Description: In vivo SGX523 and erlotinib therapeutic efficacy study, U118 xenograft. On the set-up: species or system mice. To be noted: U118 subcutaneous; P<0.05 at all three doses. The procedure: as §1
In experiment [13] the test system is DBM2 cells. Description: HGF/EGF-induced downstream signaling, Western blot, DBM2. In kind it is cell-based, human. On the procedure:
(§4) Cells were seeded in 10-cm dishes and grown until 80% confluent. After serum starvation overnight, cells were treated with or without SGX523 for 4 h with (or without) human HGF/SF or EGF (100 ng/ml) for 20 minutes at 37° C. The cells were washed twice with ice-cold 1×PBS, and whole cell lysates were prepared using RIPA buffer. The protein concentrations were determined by DC protein assay. Equal amounts of total protein (30 μg) from cell lysates were loaded on a 4-20% SDS-PAGE gel (invitrogen), transferred to a polyvinylidene difluoride (PVDF) membrane (Invitrogen), and detected using an ECL Western Blotting Detection System (GE Healthcare). Antibodies used were human Met (clone 25H2,), phospho-Met (Y1234/1235), human EGFR (clone D38B1), phosphor-EGFR(Y1068), AKT, phospho-AKT (S473), p42/44 MAPK, phospho-p42/44 MAPK (T202/Y204) (all from Cell Signaling Technology); β-actin (clone AC-15, Abcam); and anti-HGFantibody (Clone 7-2, provided by Dr. Brian Cao at Van Andel Research Institute). Secondary antibodies used were goat anti-rabbit IgG-HRP and goat anti-mouse IgG-HRP (Santa Cruz Biotechnology).
(In western blotting, separated proteins are transferred to a membrane and probed.)

Experiment [14] relates to U87M2 cells. Description: HGF/EGF-induced downstream signaling, Western blot, U87M2. The settings on record: 1-10 μM, regardless of additional HGF or EGF stimulation. It is filed as cell-based, human. The procedure: as §4
Experiment [15] deals with U87M2 cells. Description: uPA activity in HGF-autocrine U87M2 cells. In kind it is cell-based, human. The settings on record: even when stimulated by EGF. On the procedure:
as §3

In experiment [16] the test system is GBM. The settings on record: phase II clinical trials; cited from earlier work.

`C#Cc1cccc(Nc2ncnc3cc(OCCOC)c(OCCOC)cc23)c1` [Erlotinib, erlotinib]: the “p-EGFR expression in tumor lysates” value in [1] (V13, Western blot with tumor lysates) was “significantly reduced”. The tumor response result in experiment [1] is reported as “induced tumor regression”; in experiment [7] it was “very sensitive”. The “Serum HGF concentration” value is 858 ± 670 ^ pg/ml in experiment [2] (SF295 SQ1, SCID mice); 4000 ± 1132 pg/mL in experiment [2] (SF295 SQ1, SCIDhgf mice); 348.7 ± 172^ pg/ml in experiment [6] (U118, SCID mice); 2940 ± 746 pg/mL in [6] (U118, SCIDhgf mice); 1277 ± 679 pg/mL in [8] (U87M2, SCID mice); 8233 ± 3311 pg/mL in experiment [8] (U87M2, SCIDhgf mice). Besides, in [3] (FIG. 7: SGX523 90 or 120 mg/kg, erlotinib 150 mg/kg, p<0.05 for combination), the “prolonged inhibition of U87M2 tumor growth” value is reported as “failed”. The entries for the “tumor sensitivity to single agent” value in [4] and in experiment [5] were “somewhat sensitive” and “tolerate”, respectively. Further, the “p-EGFR in tumor lysates” value in experiment [7] (X01-GB, Western blot with tumor lysates) is given as “significantly reduced”. Further, in [9], the “cross inhibition between MET and EGFR pathways (uPA activity)” value is “no evidence of cross inhibition”. Further, the “inhibition of EGF-induced uPA activity” value in experiment [9] (within 24 hrs, U251M2, T98G, DBM2 cells) was “specifically blocked”.
“AMG102: a neutralizing antibody against HGF”: the clinical outcome in experiment [10] is “failed in clinical trials”.
`Cn1cc(-c2ccc3nnc(Sc4ccc5ncccc5c4)n3n2)cn1` [SGX523]: the tumor response result was “no response” in [1] and “do not respond” in experiment [7]. Moreover, the “Serum HGF concentration” value is 262 ± 138 ^4 pg/ml in [2] (SF295 SQ1, SCID mice); 4214 ± 1084 pg/mL in [2] (SF295 SQ1, SCIDhgf mice); 91 ± 85 ^5, 6 pg/ml in experiment [6] (U118, SCID mice); 4149 ± 1264 pg/mL in experiment [6] (U118, SCIDhgf mice); 152 ± 85 ^4 pg/ml in experiment [8] (U87M2, SCID mice); 6330 ± 2240 pg/mL in experiment [8] (U87M2, SCIDhgf mice). Also, the “tumor regrowth under continuous dosing” value in [3] (U87M2, continuous dosing with SGX523) is “start to grow back after 2 weeks”. In experiment [3] (U87M2, first week after treatment started), the tumor regression result was “induces U87M2 tumor regression”. For the same molecule, the xenograft tumor sensitivity result in [3] (U87M2 subcutaneous, P<0.05 at all three doses) is listed as “sensitive to SGX523 in a dose-dependent manner”; in experiment [11], “sensitive to SGX523 in a dose-dependent manner”; in experiment [12], “sensitive to SGX523 in a dose-dependent manner”. Also, the tumor growth response result in experiment [4] (SGX523 60 mg/kg) and in experiment [5] (SGX523 60 mg/kg) was “no response” throughout. Besides, in experiment [5] (120 mg/kg), the “tumor growth response at increased dose” value is given as “did not improve the responsive”. For the same molecule, the “tumor sensitivity to single agent” value in experiment [5] is reported as “tolerate”. The “inhibition of EGF induced p-EGFR” value in experiment [13] is reported as “did not inhibit”. For the same molecule, in experiment [14], the “inhibition of p-Met and downstream MAPK and AKT pathways” value is “can inhibit p-Met and downstream MAPK and AKT pathways”. Moreover, the “inhibition of HGF-induced uPA activity” value in experiment [9] (SGX523 at 0.1 μM after 24 h, U251M2, T98G, DBM2 cells) is recorded as “inhibited HGF-induced uPA activity”. The “cross inhibition between MET and EGFR pathways (uPA activity)” value in experiment [9] is listed as “no evidence of cross inhibition”. The “inhibition of basal level of uPA activity” value in experiment [15] was “did inhibit the basal level of uPA activity”.
On to `COc1cc2nccc(Oc3ccc(NC(=O)C4(C(=O)Nc5ccc(F)cc5)CC4)cc3)c2cc1OC` [XL184], for which the clinical efficacy entry in experiment [16] is reported as “promising efficacy”.
